According to ChEMBL document CHEMBL3046120, “Synthesis and root growth-inhibitory activity of 2- and 3-(haloacetylamino)-3-(2-furyl)propanoic acids” (2003):

Test system: Brassica rapa subsp. oleifera
Assay: Herbicidal activity against Brassica rapa subsp. oleifera seedling assessed as root growth inhibition at 1 x10 ' -4 M measured after 7 days
Type: functional
Settings: 168 h, read-out: GI

SMILES | inhibition of growth at 100 µM
O=C(CCl)NC(Cc1ccco1)C(=O)O (racemic) | 51%
O=C(CF)NC(Cc1ccco1)C(=O)O (racemic) | 90%
CC(=O)NC(Cc1ccco1)C(=O)O (racemic) | 19%
NC(Cc1ccco1)C(=O)O (racemic) | 7%
O=C(O)CC(NC(=O)CCl)c1ccco1 (racemic) | 55%
O=C(O)CC(NC(=O)CF)c1ccco1 (racemic) | 43%
CC(=O)NC(CC(=O)O)c1ccco1 (racemic) | 22%
NC(CC(=O)O)c1ccco1 (racemic) | 16%
O=C(O)COc1ccc(Cl)cc1Cl [2,4-DICHLOROPHENOXYACETIC ACID] | 100%
